Test results: US20240174624A1, “CHIRAL N-(1,3,4-OXADIAZOLE-2-YL)PHENYL CARBOXYLIC ACID AMIDES AND THEIR USE AS HERBICIDES” (Bayer Aktiengesellschaft, priority 2021, published 2024)

Tests used:
ZEAMX [1] = test: Pre-emergence damage to crop plants; format: in vivo, Zea mays; details: 80 g a.i./ha, comparative experiment
From the text: (§1) Seeds of monocotyledonous and dicotyledonous weed plants and crop plants are laid out in sandy loam soil in wood-fibre pots and covered with soil. The compounds of the invention, formulated in the form of wettable powders (WP) or as emulsion concentrates (EC), are then applied to the surface of the covering soil in the form of an aqueous suspension or emulsion at a water application rate equivalent to 600 to 800 l/ha, with addition of 0.2% wetting agent. After the treatment, the pots are placed in a greenhouse and kept under good growth conditions for the trial plants. The damage to the test plants is scored visually after a test period of 3 weeks by comparison with untreated controls (herbicidal activity in percent (%): 100% activity=the plants have died, 0% activity=like control plants). […] The tables below illustrate, in an illustrative manner, the post-emergence herbicidal action of the compounds of the invention, the herbicidal activity being stated in percent. In the experiments that follow, the herbicidal action of the compounds of the invention and that of the corresponding known racemic compounds closest from WO2012126932 and WO2018202535 were compared under the above-specified conditions by the pre-emergence and post-emergence method. The example numbers given in the tables relate to the compounds disclosed in the respective documents.

GLXMA = test: Pre-emergence damage to crop plants; format: in vivo, Glycine max; details: comparative experiment
From the text: as §1

VERPE [2] = test: Post-emergence herbicidal action; format: in vivo, Veronica persica; details: 5 g a.i./ha, comparative experiment
Method: (§2) Seeds of monocotyledonous and dicotyledonous weed and crop plants are laid out in sandy loam soil in wood-fibre pots, covered with soil and cultivated in a greenhouse under good growth conditions. 2 to 3 weeks after sowing, the test plants are treated at the one-leaf stage. The compounds of the invention, formulated in the form of wettable powders (WP) or as emulsion concentrates (EC), are then sprayed onto the green parts of the plants in the form of an aqueous suspension or emulsion at a water application rate equating to 600 to 800 l/ha, with addition of 0.2% wetting agent. After the test plants have been left to stand in the greenhouse under optimal growth conditions for about 3 weeks, the action of the preparations is assessed visually in comparison to untreated controls (herbicidal action in percent (%): 100% activity=the plants have died, 0% activity=like control plants). […] The tables below illustrate, in an illustrative manner, the post-emergence herbicidal action of the compounds of the invention, the herbicidal activity being stated in percent. In the experiments that follow, the herbicidal action of the compounds of the invention and that of the corresponding known racemic compounds closest from WO2012126932 and WO2018202535 were compared under the above-specified conditions by the pre-emergence and post-emergence method. The example numbers given in the tables relate to the compounds disclosed in the respective documents.

AVEFA = test: Pre-emergence herbicidal action; format: in vivo, Avena fatua; details: for Herbicidal action against AVEFA: 20 g a.i./ha, comparative experiment
From the text: as §1

LOLRI [3] = test: Post-emergence herbicidal action; format: in vivo, Lolium rigidum; details: 20 g a.i./ha, comparative experiment
Method: as §2, with “The example numbers given in the tables relate to the compounds disclosed in the respective documents.” left out

BRSNW = test: Post-emergence damage to crop plants; format: in vivo, Brassica napus; details: 20 g a.i./ha, comparative experiment
Method: as §2, with “The example numbers given in the tables relate to the compounds disclosed in the respective documents.” left out

LOLRI [4] = test: Pre-emergence herbicidal action; format: in vivo, Lolium rigidum; details: for Herbicidal action against LOLRI: 20 g a.i./ha, comparative experiment
From the text: as §1

ZEAMX [5] = test: Post-emergence damage to crop plants; format: in vivo, Zea mays; details: 20 g a.i./ha, comparative experiment
Method: as §2

DIGSA [6] = test: Post-emergence herbicidal action; format: in vivo, Digitaria sanguinalis; details: for Herbicidal action against DIGSA: 20 g a.i./ha, comparative experiment; for Post-emergence action against DIGSA: assessed after about 3 weeks
Method: as §2

TRZAS = test: Post-emergence damage to crop plants; format: in vivo, Triticum aestiva; details: 20 g a.i./ha, comparative experiment
Method: as §2

ALOMY = test: Pre-emergence herbicidal action; format: in vivo, Alopecurus myosuroides; details: for Herbicidal action against ALOMY: 20 g a.i./ha, comparative experiment; for Pre-emergence action against ALOMY: scored after 3 weeks
From the text: as §1

AMARE [7] = test: Post-emergence herbicidal action; format: in vivo, Amaranthus retroflexus; details: assessed after about 3 weeks
Method: as §2, with “percent.” for “percent. In the experiments that follow, the herbicidal action of the compounds of the invention and that of the corresponding known racemic compounds closest from WO2012126932 and WO2018202535 were compared under the above-specified conditions by the pre-emergence and post-emergence method. The example numbers given in the tables relate to the compounds disclosed in the respective documents.”

DIGSA [8] = test: Pre-emergence herbicidal action; format: in vivo, Digitaria sanguinalis; details: scored after 3 weeks
From the text: as §1, with “percent.” for “percent. In the experiments that follow, the herbicidal action of the compounds of the invention and that of the corresponding known racemic compounds closest from WO2012126932 and WO2018202535 were compared under the above-specified conditions by the pre-emergence and post-emergence method. The example numbers given in the tables relate to the compounds disclosed in the respective documents.”

POLCO = test: Pre-emergence herbicidal action; format: in vivo, Polygonum convolvulus; details: 80 g/ha, scored after 3 weeks
From the text: as §1

ECHCG [9] = test: Post-emergence herbicidal action; format: in vivo, Echinochloa crus-galli; details: 20 g/ha, assessed after about 3 weeks
Method: as §2

VERPE [10] = test: Pre-emergence herbicidal action; format: in vivo, Veronica persica; details: 80 g/ha, scored after 3 weeks
From the text: as §1

AMARE [11] = test: Pre-emergence herbicidal action; format: in vivo, Amaranthus retroflexus; details: scored after 3 weeks
From the text: as §1, with “percent.” for “percent. In the experiments that follow, the herbicidal action of the compounds of the invention and that of the corresponding known racemic compounds closest from WO2012126932 and WO2018202535 were compared under the above-specified conditions by the pre-emergence and post-emergence method. The example numbers given in the tables relate to the compounds disclosed in the respective documents.”

SETVI [12] = test: Post-emergence herbicidal action; format: in vivo, Setaria viridis; details: assessed after about 3 weeks
Method: as §2

VIOTR = test: Pre-emergence herbicidal action; format: in vivo, Viola tricolor; details: scored after 3 weeks
From the text: as §1, with “percent.” for “percent. In the experiments that follow, the herbicidal action of the compounds of the invention and that of the corresponding known racemic compounds closest from WO2012126932 and WO2018202535 were compared under the above-specified conditions by the pre-emergence and post-emergence method. The example numbers given in the tables relate to the compounds disclosed in the respective documents.”

MATIN [13] = test: Pre-emergence herbicidal action; format: in vivo, Matricaria inodora; details: scored after 3 weeks
From the text: as §1

ECHCG [14] = test: Pre-emergence herbicidal action; format: in vivo, Echinochloa crus-galli; details: 80 g/ha, scored after 3 weeks
From the text: as §1, with “percent.” for “percent. In the experiments that follow, the herbicidal action of the compounds of the invention and that of the corresponding known racemic compounds closest from WO2012126932 and WO2018202535 were compared under the above-specified conditions by the pre-emergence and post-emergence method. The example numbers given in the tables relate to the compounds disclosed in the respective documents.”

MATIN [15] = test: Post-emergence herbicidal action; format: in vivo, Matricaria inodora; details: 20 g/ha, assessed after about 3 weeks
Method: as §2, with “percent.” for “percent. In the experiments that follow, the herbicidal action of the compounds of the invention and that of the corresponding known racemic compounds closest from WO2012126932 and WO2018202535 were compared under the above-specified conditions by the pre-emergence and post-emergence method. The example numbers given in the tables relate to the compounds disclosed in the respective documents.”

SETVI [16] = test: Pre-emergence herbicidal action; format: in vivo, Setaria viridis; details: scored after 3 weeks
From the text: as §1

## Cc1nnc(NC(=O)c2ccc(C(F)(F)F)c([S+]([O-])C3CC3)c2Cl)o1 (racemic) [Racemate known from WO2012126932, 2-chloro-N-(5-methyl-1,3,4-oxadiazol-2-yl)-3-[(rac)-cyclopropylsulfinyl]-4-(trifluoromethyl)benzamide, reference compound]
ZEAMX [1]
  Damage to ZEAMX: 70%
GLXMA; 20 g a.i./ha
  Damage to GLXMA: 60%
GLXMA; 80 g a.i./ha
  Damage to GLXMA: 100%
VERPE [2]
  Herbicidal action against VERPE: 40%
AVEFA
  Herbicidal action against AVEFA: 0%
LOLRI [3]
  Herbicidal action against LOLRI: 30%
BRSNW
  Damage to BRSNW: 100%
LOLRI [4]
  Herbicidal action against LOLRI: 0%
ZEAMX [5]
  Damage to ZEAMX: 20%
DIGSA [6]
  Herbicidal action against DIGSA: 80%
TRZAS
  Damage to TRZAS: 40%
ALOMY
  Herbicidal action against ALOMY: 0%

## Cc1nnc(NC(=O)c2ccc(C(F)(F)F)c([S+]([O-])C3CC3)c2Cl)o1 (stereo in doubt) [Example I-4, 2-chloro-N-(5-methyl-1,3,4-oxadiazol-2-yl)-3-[(S)-cyclopropylsulfinyl]-4-(trifluoromethyl)benzamide]
ZEAMX [1]
  Damage to ZEAMX: 50%
GLXMA; 20 g a.i./ha
  Damage to GLXMA: 40%
GLXMA; 80 g a.i./ha
  Damage to GLXMA: 80%
VERPE [2]
  Herbicidal action against VERPE: 60%
AVEFA
  Herbicidal action against AVEFA: 30%
AVEFA; 80 g/ha, scored after 3 weeks
  Pre-emergence action against AVEFA: 90%
AMARE [7]; 5 g/ha
  Post-emergence action against AMARE: 100%
AMARE [7]; 20 g/ha
  Post-emergence action against AMARE: 100%
DIGSA [8]; 20 g/ha
  Pre-emergence action against DIGSA: 100%
DIGSA [8]; 80 g/ha
  Pre-emergence action against DIGSA: 100%
POLCO
  Pre-emergence action against POLCO: 80%
LOLRI [3]
  Herbicidal action against LOLRI: 60%
ECHCG [9]
  Post-emergence action against ECHCG: 90%
VERPE [10]
  Pre-emergence action against VERPE: 100%
AMARE [11]; 20 g/ha
  Pre-emergence action against AMARE: 100%
AMARE [11]; 80 g/ha
  Pre-emergence action against AMARE: 100%
BRSNW
  Damage to BRSNW: 80%
SETVI [12]; 5 g/ha
  Post-emergence action against SETVI: 100%
SETVI [12]; 20 g/ha
  Post-emergence action against SETVI: 100%
VIOTR; 20 g/ha
  Pre-emergence action against VIOTR: 100%
VIOTR; 80 g/ha
  Pre-emergence action against VIOTR: 100%
LOLRI [4]
  Herbicidal action against LOLRI: 50%
LOLRI [4]; 80 g/ha, scored after 3 weeks
  Pre-emergence action against LOLRI: 80%
MATIN [13]; 20 g/ha
  Pre-emergence action against MATIN: 80%
MATIN [13]; 80 g/ha
  Pre-emergence action against MATIN: 100%
ZEAMX [5]
  Damage to ZEAMX: 0%
DIGSA [6]; 5 g/ha
  Post-emergence action against DIGSA: 90%
DIGSA [6]
  Herbicidal action against DIGSA: 100%
DIGSA [6]; 20 g/ha
  Post-emergence action against DIGSA: 100%
TRZAS
  Damage to TRZAS: 20%
ECHCG [14]
  Pre-emergence action against ECHCG: 100%
MATIN [15]
  Post-emergence action against MATIN: 80%
ALOMY
  Herbicidal action against ALOMY: 80%
ALOMY; 20 g/ha
  Pre-emergence action against ALOMY: 80%
ALOMY; 80 g/ha
  Pre-emergence action against ALOMY: 100%
SETVI [16]; 20 g/ha
  Pre-emergence action against SETVI: 100%
SETVI [16]; 80 g/ha
  Pre-emergence action against SETVI: 100%
